These results are taken from US20030226158A1, “Cds1 knockout cells and mice, and their utilization” (priority 2000, published 2003).

The assay concerns p53 protein. As to the kind of experiment: X-ray irradiation-induced p53 protein expression in ES cells, western blotting. Type of assay: cell-based, mouse. As to conditions: X-ray irradiated, western blotting with antibody against p53. For orientation: Immunoblotting shows a protein as a band on a membrane.

Method: The analysis was done by western blotting.
ES cell lines in which one or both Cds1 (Chk2) alleles were inactivated (Cds1 (Chk2)+/− and Cds1 (Chk2)−/−) were treated with trypsin and counted. Then, a constant number of ES cells were plated in 6-well plates in which feeder cells had been planted in advance. MEF (mouse embryonic fibroblast) was used as feeder cells. The cells were treated with X ray and cultured in an CO2 incubator for 6 hours. Then, a cell extract was prepared, the proteins were separated by SDS-PAGE, and transferred to a PVDF membrane. p53 protein was quantified by conducting western blotting using an antibody against p53.

For `Cn1c(=O)c2c(ncn2C)n(C)c1=O` [caffeine], the “induction of p53 expression after irradiation” value reads like this: (Cds1-/- ES cells) “inhibited”; (wild type ES cells) “inhibited”.
